# US9417257B2, “System and method for collecting, storing, processing, transmitting and presenting very low amplitude signals” (Nativis, Inc., priority 2004, dated 2016)
# Where a SMILES comes first, the peptide text is derived from it. [ ]: non-standard residue; d: D form. Nle = CCCC[C@H](N)C(=O)O
# Columns and labels:
# [1] = target: T1, 20S proteasome (Homo sapiens, UniProt P28074); assay: 20S proteasome assay, cleavage of Suc-Leu-Leu-Val-Tyr-AMC (fluorescence); format: biochemical
# T1 construct: purchased EMD Biosciences 539158
# Source text: The 20S proteasome enzyme is activated with a mild detergent (SDS). The cleavage of the substrate Suc-Leu-Leu-Val-Tyr-AMC by the activated enzyme liberates the fluorescent AMC molecules that can be monitored by exciting AMC at 380 nm and detecting the fluorescence at 460 nm. Proteosome activity is inhibited by phepropeptin D.
# In a first study, the ability of phepropeptin D and a MIDS signal of phepropeptin D to inhibit proteosome activity, as measured by the appearance of conversion of the substrate Suc-Leu-Leu-Val-Tyr-AMC to yield a fluorescent signal were measured, following substantially the same methodology described above and in the examples.
# The 20S Proteasome assay kit (EMD Biosciences Cat #539158) was adapted for use in a cuvette format with a final volume of 200 μl. Nine samples were set-up using the following procedure:
# Reaction buffer (20×) was diluted, 100 μl with 880 μl of HPLC grade water and 20 μl of 100× activation buffer to a final volume of 1 ml.
# 100 μl of the diluted 2× reaction buffer was added to each of the no enzyme control tubes.
# The 20S proteasome enzyme was added to the remaining solution, 3.2 μl to 800 μl of 2× reaction buffer and 100 μl added to each of 7 remaining tubes.
# To each tube 100 μl of water or water and inhibitor were added.
# In a separate tube 4 μl of the substrate was diluted with 96 μl of HPLC grade water and 10 μl/tube of the diluted substrate was added to each of the reaction tubes to obtain a final volume of 200 μl.
# Samples were all mixed by repeated pipetting and the reactions incubated at 37 C for 2 hrs.
# Fluorescence was quantiated and recorded using a fluorometer (Turner Designs, Sunnyvale, Calif.—Model TD-700).
# In a follow-up study, samples were allowed to incubate at room temperature overnight to determine if the substrate would continue to be converted to the fluorescent product. […]
# [2] = tested on: araC-PBAD promoter dependent expression of GFPuv; conditions: cited from earlier work
# [3] = tested on: araC-PBAD promoter dependent expression of GFPuv; assay: Induction of araC-PBAD GFPuv reporter in pBAD-GFPuv transformed JM109 bacteria, whole cell fluorescence; format: cell-based, E coli; conditions: MIDS = signal playback
# Source text: The reporter system for sugar sensing was obtained from a commercial supplier. In this system, bacteria are transformed with a plasmid that consists of the gene for AraC, which acts as an activator of the ara operon, and the gene for a variant green florescent protein, under the control of the PBAD promoter. L-arabinose specifically binds to araC and rapidly turns on transcription in a time dependent fashion reaching a maximum expression level within 3 hr as monitored by intact whole cell fluorescence of the expressed GFP. GFPuv expression is linear with dose over two logs of concentration of L-arabinose (1-500 uM).
# The inherent (MIDS) emission signals of L and D-arabinose are obtained as detailed above, employing a 0.1 mM solution of L(+) Ara or D(+) Ara for signal recording, and the autocorrelation/FFT method for identifying optimized time-domain signals.
# Transduction experiments were performed with two sets of coils. In the first system, a pair of coils consisting of 30 gauge aluminum wire was wound around a 3″ tall section of PVC core with 2⅝″ o.d., wound to 35× the number of windings of starting coils. These were place inside aluminum Faraday boxes 5½×4″×8¾″ (W×H×D) to isolate samples for crossover RF signals. Both boxes were placed upon the orbital shaker platform to aerate transducing cultures.
# In the second set of three 4″ tall stock 4000-ft spools of 28G insulated copper wired with 1″ i.d. plastic cores were directly used as transduction coils (“Mega coils”) and two coils were driven with the MIDS signals, while the third control coil was driven by a random white noise generator. In this case, all three coils were isolated in Faraday boxes, and mounted separated by 2 ft on a 6-ft plank that was fitted to the orbital shaker. This ensured that all three samples were agitated at the same speed with one shaker. Thermistor temperature probes were also place into the core of each coil proximal to the sample to provide real-time reading of temperature. Both sets of MIDS signal coils were driven at the highest input voltage setting until their temperature equilibrated near 94-97° F. from resistive heating of the wound wire. Samples were centered in the core of the coil to experience the maximum and most uniform area of RF flux. (a limitation of the current set-up was the linkage of heating with driving voltages which control RF flux).
# In a typical experiment, 1-3 drops of overnight cultures of pBAD-GFPuv transformed JM109 grown in Luria broth containing 100-500 ug/ml of sodium ampicillin (LB/amp) were used to seed 50 ml fresh LB/amp. This was well mixed and 10 ml transferred to 25-ml Erlenmeyer flasks, and 0.1 ml of 100× stocks of reference chemical inducers (D or L arabinose) were added to final concentrations desired. These seeded cultures were placed into either the transduction coils, or left on the shaker platform as controls. (Another limitation of the current set up is the availability of only one shaker table, forcing a choice between incubation at controlled above ambient temperature to match the coils but without agitation, or agitation simply at ambient temperature. Also the matching of the coil temperatures varies about 2-3° F. and cannot be precisely controlled or determined). In most cases the transductions were conducted as overnight incubations.
# After transduction was stopped, 1.2 ml of bacterial cell culture suspension were transferred to 1.7 ml microcentrifuge tubes and centrifuge 1-2 mins at 12,000 rpm (10,000×rcg). Supernatant broth was removed, discarded and the bacterial pellets re-suspended in 1 ml of ice-cold PBS. Washed suspensions were centrifuged again, PBS wash discarded, pellets re-suspended in fresh PBS, transferred to cuvettes to measure OD600 nm, then volumes were adjusted to match cell density among samples.
# For each of the studies reported here, % Relative=[(Fluor. of L(+)ara MIDS)−(Fluor. of D(−)ara MIDS)]
# Induction (Fluor. of D(−) ara MIDS).
# [4] = tested on: pea sprouts; assay: Sugar pea sprout stem length, inhibition by herbicide; format: in vivo; conditions: 72 hour, 37° C., 100% humidity; FIG. 31
# Description: The optimized inherent (MIDS) emission signals of glyphosphate were obtained as described in Sections II and III above, using system equipment and protocols as detailed in Examples 1 and 2 below. In one experiment, an optimized glyphosphate MIDS signal was applied to pea sprouts supported on a moist medium, with signal application over a 72 hour period at 37° C., 100% humidity. Various controls included (1) no signal, (2), the chemical Roundup®, and (3) a white noise signal. Stem length was measured within a hour after exposure to the stimulus, and 5-50 sprouts were contained in each group.
# [5] = tested on: MDA-MB-435 human breast tumor; assay: MDA-MB-435 human breast tumor mouse xenograft; format: in vivo, athymic nude mice; conditions: day 36; outliers removed; taxol 15 mg/kg i.p. twice a wk; MIDS continuous playback
# Description: Method: MIDS measurement was made in glass sample holders (Kimble autoinjector vials) on (1) neat solution of the preformulated taxol clinical vial, using a 1 ml tuberculin syringe, and 22G needle, to withdraw 0.7 ml from multidose vial (preserve sterility and integrity of solution, so don't syringe back in), then (2) this 0.7 ml taxol formulation will be used to dissolve additional 1 mg vials of taxol, to increase the amount of taxol relative to Cremophor®. The study was designed to evaluate the efficacy of a transduction technology to inhibit tumor growth in an in vivo human tumor mouse xenograft model, and to compare its effect to a standard chemotherapeutic treatment-taxol. 5 million MDA-MB-435 cells, in suspension, were subcutaneously injected into the flanks of athymic nude mice. Treatment began the same day of cell implant (Day 1). Animals were assigned to one of 4 groups. Each animal was monitored for tumor growth twice per week for the duration of the study. One group was treated with Taxol, Two groups were treated with transduction and one group was treated with the taxol vehicle to act as a control.
# The mice were athymic nude mice nu/nu with a BALB/c background. Implanted with 5 million of breast cancer tumor line MDA-MB-435(NCI standard originally from the NCI) from American Culture Type Collection, ATCC (Rockville, Md.). […]
# [6] = Experiment 1, OD-matched cells, L(+) Ara 0.2 mM, D(−) Ara 1 mM
# [7] = Experiment 2, L(+) ara 0.25 mM, D(−) ara 1 mM
SMILES,"Fluorescence Average rfu [3, 6] [rfu]","Fluorescence rfu1 [3, 6] [rfu]","Fluorescence rfu2 [3, 6] [rfu]","Fluorescence rfu3 [3, 6] [rfu]","Fluorescence Average rfu [3, 7] [rfu]","Fluorescence rfu1 [3, 7] [rfu]","Fluorescence rfu2 [3, 7] [rfu]","Fluorescence rfu3 [3, 7] [rfu]",further results
CCCC[C@@H](C=O)NC(=O)[C@H](CC(C)C)NC(=O)[C@H](CC(C)C)NC(C)=O [ALLN] (Ac-Leu-Leu-[Nle]-aldehyde),–,–,–,–,–,–,–,–,"Fluorescence relative to positive control sample #2 set to 700 ([1]; 37 C, 2 hrs, MIDS 60 mG AC field): 25.83; % Normalized Fluorescence ([1]; 1 hr 30 min): 4.975%; % Normalized Fluorescence ([1]; 20 hrs post, room temperature overnight, removed from the field): 2.646%"
"O=C[C@@H](O)[C@H](O)[C@H](O)CO [D(−) Ara, D(−)-arabinose]",297.7,297.6,297.8,297.7,226.5,226.7,226.7,226.1,"binding of araC and activation of genes downstream of the PBAD promoter (in words) ([2]; even at 1000-fold higher concentration than L-arabinose): does not bind araC, nor activate expression of genes downstream of the PBAD promoter"
"O=C[C@H](O)[C@@H](O)[C@@H](O)CO [L(+) Ara, L(+)-arabinose]",833.5,835.0,832.7,832.7,939.7,940.0,939.4,939.7,concentration range over which GFPuv expression is linear with dose [2]: 1 to 500 µM; potency [2]: 100 µM; time to maximum expression level of GFP ([2]; whole cell fluorescence): ≤ 3 h
"O=C(O)CNCP(=O)(O)O [glyphosphate, N-phosphonomethylglycine]",–,–,–,–,–,–,–,–,stem growth (in words) [4]: effective in substabtially inhibited stem growth
CC(=O)O[C@H]1C(=O)[C@@]2(C)[C@H]([C@H](OC(=O)c3ccccc3)[C@]3(O)C[C@H](OC(=O)[C@H](O)[C@@H](NC(=O)c4ccccc4)c4ccccc4)C(C)=C1C3(C)C)[C@]1(OC(C)=O)CO[C@@H]1C[C@@H]2O [taxol],–,–,–,–,–,–,–,–,tumor growth inhibition [5]: 43%
